In ChEMBL document CHEMBL1131437, “Resistance-modifying agents. 5. Synthesis and biological properties of quinazolinone inhibitors of the DNA repair enzyme poly(ADP-ribose) polymerase (PARP)” (J Med Chem, 1998) one finds IC50 data, which are given here for 16 compounds.

The IC50 is the concentration needed to halve the response being measured. Low readings indicate inhibition by little substance, high ones a need for much substance.

Molecules are shown by their SMILES. Some results are limits rather than exact numbers.

For this assay, the target named is Poly [ADP-ribose] polymerase 1 (Mus musculus, UniProt P11103). Kind of assay: biochemical.
Chain of Poly [ADP-ribose] polymerase 1 (P11103 whole entry): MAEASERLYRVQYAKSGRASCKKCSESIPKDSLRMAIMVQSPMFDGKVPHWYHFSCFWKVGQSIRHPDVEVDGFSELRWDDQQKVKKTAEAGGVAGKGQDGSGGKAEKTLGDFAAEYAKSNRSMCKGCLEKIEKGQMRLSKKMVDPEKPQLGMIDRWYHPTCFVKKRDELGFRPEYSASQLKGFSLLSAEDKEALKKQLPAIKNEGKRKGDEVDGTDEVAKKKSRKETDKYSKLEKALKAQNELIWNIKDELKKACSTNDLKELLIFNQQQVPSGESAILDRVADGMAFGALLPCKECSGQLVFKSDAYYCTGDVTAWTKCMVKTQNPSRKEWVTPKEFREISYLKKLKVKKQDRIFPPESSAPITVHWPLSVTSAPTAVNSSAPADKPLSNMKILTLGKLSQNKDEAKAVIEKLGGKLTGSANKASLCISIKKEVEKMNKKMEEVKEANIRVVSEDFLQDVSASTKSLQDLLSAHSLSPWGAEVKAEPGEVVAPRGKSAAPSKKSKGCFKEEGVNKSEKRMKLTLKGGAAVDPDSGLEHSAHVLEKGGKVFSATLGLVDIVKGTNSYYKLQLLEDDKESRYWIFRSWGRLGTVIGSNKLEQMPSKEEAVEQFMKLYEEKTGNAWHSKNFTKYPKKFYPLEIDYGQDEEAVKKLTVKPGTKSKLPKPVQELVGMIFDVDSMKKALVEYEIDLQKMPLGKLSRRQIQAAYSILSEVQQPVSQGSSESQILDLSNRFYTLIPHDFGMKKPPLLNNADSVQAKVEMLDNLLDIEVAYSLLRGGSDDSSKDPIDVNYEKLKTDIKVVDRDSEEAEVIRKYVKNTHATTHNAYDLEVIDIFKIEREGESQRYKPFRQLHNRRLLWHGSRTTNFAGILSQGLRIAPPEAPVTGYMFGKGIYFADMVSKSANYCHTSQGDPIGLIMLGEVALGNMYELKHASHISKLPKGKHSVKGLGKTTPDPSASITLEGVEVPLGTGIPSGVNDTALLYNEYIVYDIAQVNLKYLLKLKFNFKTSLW
Description: Inhibition of the DNA repair Poly (ADP-ribose) polymerase 1, in permeabilised L1210 murine leukemia cells
`Cc1cccc2c(=O)[nH]c(-c3ccc(O)cc3)nc12` displayed an IC50 of 220 nM.
`Cc1cccc2c(O)nc(-c3ccc(C#N)cc3)nc12` came in with an IC50 of 270 nM.
In the case of `COc1ccc(-c2nc3c(C)cccc3c(=O)[nH]2)cc1`, half-maximal inhibition (IC50) was put at 190 nM.
The compound `Cc1cccc2c(O)nc(-c3ccc(C(F)(F)F)cc3)nc12` registered an IC50 greater than 10000 nM.
`Cc1nc2c(O)cccc2c(=O)n1C`: the IC50 was greater than 100000 nM.
`Nc1ccc(-c2nc(O)c3cccc(O)c3n2)cc1` returned an IC50 of 320 nM. This counts as sub-micromolar.
As for `Cc1cccc2c(=O)[nH]c(-c3ccccc3)nc12`, half-maximal inhibition (IC50) required 870 nM.
`Cc1cccc2c(O)nc(-c3ccc(N)cc3)nc12` yielded an IC50 of 440 nM. Against the preceding compound, the IC50 is about 2-fold lower.
Then `COc1cccc2c(=O)n(C)c(C)nc12`, with greater than 100000 nM.
With `COc1cccc2c(O)nc(-c3ccc(C(F)(F)F)cc3)nc12`, it took 39000 nM to reach half-maximal inhibition (IC50).
Compound `COc1cccc2c(O)nc(-c3ccc([N+](=O)[O-])cc3)nc12` returned an IC50 of 850 nM.
On to `NC(=O)c1cccc(N)c1` [3-AMINOBENZAMIDE], for which half-maximal inhibition (IC50) was put at 19100 nM. This IC50 is about 22-fold higher than that of the compound before.
In turn, `Cc1nc(O)c2cccc(C)c2n1` had an IC50 of 390 nM.
On to `COc1cccc2c(O)nc(-c3ccc(C#N)cc3)nc12`, for which inhibition was half-maximal at 1340 nM (IC50).
As to `COc1cccc2c(=O)[nH]c(-c3ccc(N=[N+]=[N-])cc3)nc12`, the midpoint of inhibition, the IC50, lay at 1930 nM.
In the case of `COc1cccc2c(O)nc(-c3ccc(N)cc3)nc12`, the concentration for half-maximal inhibition (IC50) was greater than 300 nM.
